What all share (assay type): in vivo
Assay [1] deals with Barnyard Grass. As to the kind of experiment: Pre-emergent control of seed germination, soil drench. Conditions: barnyard grass. An excerpt: (§1) Four parts by weight of the compound, 0.08 part of sorbitan trioleate (Span 85), and 0.02 part of a sorbitan monooleate polyoxyethylene derivative (Tween 80) are dipersed in 40 milliliters of acetone to produce a concentrate composition in the form of a water-dispersible liquid containing the predetermined oxirane compound as the sole active agent.
(§2) A portion of each of these concentrate compositions were separately dispersed in portions of water to provide aqueous compositions, containing 0.44 pound of the oxirane compound per 100 gallons of ultimate aqueous mixture.
(§3) The aqueous compositions were then employed for the treatment of seed beds of good agricultural soil which had been prepared and seeded with the seeds of various grass species and broadleaf plants. The grass species included white winter wheat, cultured rice, pigweeds, crabgrass, cheat grass, wild oats, Johnson grass, barnyard grass and yellow foxtail; and the broadleaf plants included corn. In the treating operations, a predetermined quantity of each of the compositions was applied to separate seedbeds as a soil drench at a rate of about 0.43 acre inch of aqueous composition per acre. The quantities were controlled to supply a substantial uniform dosage in a seedbed equivalent to 1.0, 2.0 and 5.0 pounds of the oxirane compound per acre. These dosages correspond, respectively, to a concentration, within the soil depth penetrated of about 1.6, 3.2 and 8.0 parts by weight of the oxirane compound per million parts by weight of soil. Other seedbeds were similarly seeded with the named plant species but were left untreated to serve as checks.
(§4) After about 2 weeks the seedbeds were examined to ascertain what control of the growth of seeds had been obtained.
(§5) were prepared as in Example 32 and similarly employed for the pre-emergencetreatment of various plant species.
(§6) An aqueous composition containing 2-(α,α,α -trifluoro-m-tolyl)-2-(2,2,2-trichloroethyl)oxirane was prepared as described in Example 32. The composition was then employed according to the procedures of Example 32 except that lower concentrations of the oxirane compound were employed in the composition.
(§7) The percent control of the various plant species at the employed dosage rate of the 2-(α,α,α-trifluoro-m-tolyl)- 2-(2,2,2-trichloroethyl) supplied by the composition is set forth in the following Table IV.

The test system of assay [2] is Pigweeds. The description is as above. Conditions: pigweeds, 2.0 pounds per acre.
Source text: as §1, §2, §3, §4, §5, §6, §7

The test system of assay [3] is Crabgrass. The assay is described as above. Conditions: for pre-emergence control: crabgrass; for % Control: pre-emergence, Crab Grass.
Source text: as §1, §2, §3, §4, §5
(§8) Separate aqueous compositions containing the 2-(m-chlorophenyl)-2-(2,2,2-trichloroethyl)oxirane (Cmpd. A) and 2-(m-bromophenyl)-2-(2,2,2-trichloroethyl)oxirane (Cmpd. C) compounds of the present invention were prepared as in Example 32 for comparative per-emergence herbicide tests against noxious grass species with the known 2 -(p-chlorophenyl)-2-(2,2,2-trichloroethyl)oxirane (Cmpd. B) compound and 2-(p-bromophenyl)-2-(2,2,2-trichloroethyl)oxirane (Cmpd. D). The pre-emergence tests were conducted in Example 32 and the results of such tests are set forth below in Table III.
as §6, §7

The subject of assay [4] is Johnson Grass. The assay is described as above. Conditions: for pre-emergence control: Johnson grass; for % Control: pre-emergence, Johnson Grass.
Source text: as §1, §2, §3, §4, §5, §8, §6, §7

Assay [5] concerns Wild Oats. Described as above. The settings on record: wild oats.
Source text: as §1, §2, §3, §4, §5, §6, §7

The subject of assay [6] is Yellow Foxtail. The description is as above. The settings on record: yellow foxtail.
Source text: as §1, §2, §3, §4, §5, §6, §7

The subject of assay [7] is Water-Grass. As to the kind of experiment: Comparative pre-emergence herbicide test.
Source text: as §1, §2, §3, §4, §8

The mark [8] stands for this setting: 0.25 to 0.5 pounds per acre, respectively.

Experimental findings from US4018801A, “Substituted oxirane compounds” (The Dow Chemical Company, priority 1975, dated 1977) are described below.

SMILES strings stand for the structures.

On to `COc1cccc(C2(CC(Cl)(Cl)Cl)CO2)c1` (stereo not shown) [Example 12, 2-(m-methoxyphenyl)-2-(2,2,2-trichloroethyl)oxirane], for which the pre-emergence control entry in assay [1] (2.0 pounds per acre), in assay [2], in assay [3] (2.0 pounds per acre) and in assay [4] (2.0 pounds per acre) was “substantially complete pre-emergence control” in each case.

As for `CCOc1cccc(C2(CC(Cl)(Cl)Cl)CO2)c1` (stereo not shown) [Example 14, 2-(m-ethoxyphenyl)-2-(2,2,2-trichloroethyl)oxirane], the pre-emergence control result in assay [5] (2.0 pounds per acre), in assay [1] (2.0 pounds per acre), in assay [3] (2.0 pounds per acre) and in assay [4] (2.0 pounds per acre) was “substantially complete control” in each case.

Take `Cc1cccc(C2(CC(Cl)(Cl)Cl)CO2)c1` (stereo not shown) [Example 9, 2-(m-tolyl)-2-(2,2,2-trichloroethyl)oxirane]: the pre-emergence control result in assay [5] (2.0 pounds per acre), in assay [1] (2.0 pounds per acre), in assay [2], in assay [6] (2.0 pounds per acre), in assay [3] (2.0 pounds per acre) and in assay [4] (2.0 pounds per acre) was “substantially complete control” in each case.

On to `ClC(Cl)(Cl)CC1(c2ccc(Br)cc2)CO1` (stereo not shown) [Cmpd. D, 2-(p-bromophenyl)-2-(2,2,2-trichloroethyl)oxirane, reference compound], for which the “% Control” value is on record as 60% in assay [7] (1/8 Lb/Acre); 30% in assay [7] (1/16 Lb/Acre); 0% in assay [3] (1/8 Lb/Acre); 0% in assay [3] (1/16 Lb/Acre); 25% in assay [4] (1/8 Lb/Acre); 0% in assay [4] (1/16 Lb/Acre).

`Clc1ccc(C2(CC(Cl)(Cl)Cl)CO2)cc1` (stereo not shown) [Cmpd. B, 2-(p-chlorophenyl)-2-(2,2,2-trichloroethyl)oxirane, reference compound]: the “% Control” value in assay [7] (1/8 Lb/Acre) was 90%; in assay [7] (1/16 Lb/Acre) it was 60%; in assay [3] (1/8 Lb/Acre), 20%; in assay [3] (1/16 Lb/Acre), 0%; in assay [4] (1/8 Lb/Acre), 30%; in assay [4] (1/16 Lb/Acre), 0%.

As to `Fc1cccc(C2(CC(Cl)(Cl)Cl)CO2)c1` (stereo not shown) [Example 19, 2-(m-fluorophenyl)-2-(2,2,2-trichloroethyl)oxirane], the pre-emergence control result in assay [5] (setting [8]), in assay [1] (setting [8]), in assay [6] (setting [8]), in assay [3] (setting [8]) and in assay [4] (setting [8]) was “Substantially complete pre-emergence control” in each case.

Take `Clc1cccc(C2(CC(Cl)(Cl)Cl)CO2)c1` (stereo not shown) [Example 7, 2-(m-chlorophenyl)-2-(2,2,2-trichloroethyl)oxirane]: the “% Control” value turned out to be 90% in assay [7] (1/8 Lb/Acre); 85% in assay [7] (1/16 Lb/Acre); 100% in assay [3] (1/8 Lb/Acre); 100% in assay [3] (1/16 Lb/Acre); 100% in assay [4] (1/8 Lb/Acre); 100% in assay [4] (1/16 Lb/Acre). For the same compound, the pre-emergence control result in assay [5] (setting [8]), in assay [1] (setting [8]), in assay [6] (setting [8]), in assay [3] (setting [8]) and in assay [4] (setting [8]) was “Substantially complete pre-emergence control” in each case.

`Clc1ccc(C2(CC(Cl)(Cl)Cl)CO2)cc1Cl` (stereo not shown) [Example 5, 2-(3,4-dichlorophenyl)-2-(2,2,2-trichloroethyl)oxirane]: the pre-emergence control entry in assay [5] (2.0 pounds per acre), in assay [2], in assay [3] (2.0 pounds per acre) and in assay [4] (2.0 pounds per acre) was “substantially complete control” each time.
